Experimental data published in US8609661B2, “Pyrimido-pyrrolo-quinoxalinedione inhibitors of cystic fibrosis transmembrane conductance regulator protein and uses therefor” (The Regents of the University of California, priority 2009, dated 2013).
Like-named read-outs stand apart in the source and are kept apart here.

Biological target: T1, human wildtype CFTR (Homo sapiens, UniProt P13569)
T1 construct: expressed in transfected cells; host or cells: Fischer rat thyroid (FRT) cells
Test: Fluorescence platereader assay of CFTR-mediated iodide influx (YFP quenching) in FRT cells
Format: cell-based
Conditions: for inhibition at 5 µM / inhibition at 25 µM: FRT; for IC50: apparent IC50 from concentration-inhibition data, fluorescence platereader assay
Description: A. Cell lines and compounds—Fischer rat thyroid (FRT) cells co-expressing human wildtype CFTR and the halide indicator YFP-H148Q/1152L were generated as described (see, e.g., Ma et al., J. Clin. Invest. 110:1651-1658 (2002)). Cells were plated in 96-well black-walled microplates (Corning Costar) at a density of 20,000 cells per well in Coon's modified F12 medium supplemented with 5% fetal calf serum, 2 mM L-glutamine, 100 U/mL penicillin, and 100 μg/ml streptomycin. Assays were performed at 48 h after plating the cells when the cells were just confluent. For some experiments, measurements were made using T84 human intestinal epithelial cells and for other experiments, measurements were obtained using primary cultures of human bronchial epithelial cells, which were obtained and grown essentially as previously described (see, e.g., 3 and 27).
B. Compound Screening—Assays were performed using an automated screening platform (Beckman) equipped with FLUOStar fluorescence platereaders (BMG Lab Technologies, Offenburg, Germany) as described (see Ma et al., supra). Each well of a 96-well plate containing FRT cells was washed 3 times in PBS (300 μL/wash), leaving 50 μL PBS. […] After 15 min, 96-well plates were transferred to a plate reader for fluorescence assay. Each well was assayed individually for CFTR-mediated iodide influx by recording fluorescence continuously (200 ms per point) for 2 s (baseline) and then for 10 s after rapid addition of 160 μL of isosmolar PBS in which 137 mM chloride was replaced by iodide. The initial rate of iodide influx was computed from fluorescence data by non-linear regression.
Collections of synthetic and natural compounds were screened according to the screening procedures described in Example 2. A cell-based fluorescence assay was used in which CFTR inhibitors were identified by reduced iodide influx in FRT cells co-expressing human CFTR and a YFP halide sensor. CFTR was maximally activated by a mixture of agonists having different activating mechanisms. Inhibition of iodide influx was observed as reduced YFP fluorescence quenching in response to rapid iodide addition to each well of 96-well plates. […]

[1] = read-out: % inhibition at 25/5 μM (5 μM value), Table 1, 5 μM compound
[2] = read-out: % inhibition at 25/5 μM (25 μM value), Table 1, 25 μM compound
[3] = Table 2, screening, 5 μM, read-out: % Inhibition at 5 μM
[4] = Table 2, screening, 25 μM, read-out: % Inhibition at 25 μM

T1 sequence (P13569 whole entry): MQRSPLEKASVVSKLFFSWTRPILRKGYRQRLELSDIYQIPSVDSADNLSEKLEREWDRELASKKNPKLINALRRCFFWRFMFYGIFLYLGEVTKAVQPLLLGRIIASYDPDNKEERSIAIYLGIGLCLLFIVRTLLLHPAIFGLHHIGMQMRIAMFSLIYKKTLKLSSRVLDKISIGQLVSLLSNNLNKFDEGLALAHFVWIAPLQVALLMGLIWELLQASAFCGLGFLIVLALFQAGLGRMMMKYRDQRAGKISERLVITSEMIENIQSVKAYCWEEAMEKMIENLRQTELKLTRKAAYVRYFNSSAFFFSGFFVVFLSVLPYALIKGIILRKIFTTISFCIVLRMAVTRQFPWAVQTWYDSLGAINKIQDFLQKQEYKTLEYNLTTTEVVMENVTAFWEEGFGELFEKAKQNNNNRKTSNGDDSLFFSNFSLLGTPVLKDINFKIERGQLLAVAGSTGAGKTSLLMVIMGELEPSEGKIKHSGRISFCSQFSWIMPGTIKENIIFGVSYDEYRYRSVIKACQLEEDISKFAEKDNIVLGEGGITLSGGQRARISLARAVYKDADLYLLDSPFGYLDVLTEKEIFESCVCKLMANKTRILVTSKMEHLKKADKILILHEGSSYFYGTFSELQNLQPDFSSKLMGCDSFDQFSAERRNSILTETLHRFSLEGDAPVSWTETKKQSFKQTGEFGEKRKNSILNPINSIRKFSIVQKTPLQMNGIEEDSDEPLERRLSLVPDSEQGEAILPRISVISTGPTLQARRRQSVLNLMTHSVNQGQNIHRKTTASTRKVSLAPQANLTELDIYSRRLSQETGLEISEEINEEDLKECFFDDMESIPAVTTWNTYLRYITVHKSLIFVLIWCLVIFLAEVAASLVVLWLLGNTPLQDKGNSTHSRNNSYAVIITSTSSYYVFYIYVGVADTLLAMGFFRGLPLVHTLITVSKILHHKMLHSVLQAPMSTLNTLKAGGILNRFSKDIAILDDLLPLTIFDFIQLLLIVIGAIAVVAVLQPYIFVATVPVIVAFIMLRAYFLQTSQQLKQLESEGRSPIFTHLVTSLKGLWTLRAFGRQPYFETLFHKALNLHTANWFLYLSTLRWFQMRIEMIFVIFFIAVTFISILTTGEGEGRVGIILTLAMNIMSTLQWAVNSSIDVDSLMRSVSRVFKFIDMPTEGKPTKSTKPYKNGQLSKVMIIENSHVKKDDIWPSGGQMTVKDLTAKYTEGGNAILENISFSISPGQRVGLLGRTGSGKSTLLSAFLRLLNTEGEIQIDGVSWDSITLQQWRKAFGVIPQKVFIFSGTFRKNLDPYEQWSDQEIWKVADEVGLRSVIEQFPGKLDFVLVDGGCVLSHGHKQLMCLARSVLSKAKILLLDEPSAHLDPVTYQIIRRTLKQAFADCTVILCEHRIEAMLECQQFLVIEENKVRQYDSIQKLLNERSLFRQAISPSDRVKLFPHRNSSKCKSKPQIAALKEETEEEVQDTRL

Structure (SMILES)	inhibition at 5 µM [1]	inhibition at 25 µM [2]	inhibition at 5 µM [3]	inhibition at 25 µM [4]	IC50
Cc1ccccc1-c1c2c(=O)n(C)c(=O)n(C)c2c2n1-c1ccccc1NC2c1cccc([N+](=O)[O-])c1 (stereo not drawn) [PPQ-213, 7,9-Dimethyl-11-(2-methylphenyl)-6-(3-nitrophenyl)-5,6-dihydro-pyrimido[4′,5′-3,4]pyrrolo[1,2-a]quinoxaline-8,10-(7H,9H)-dione]	64%	96%	64%	96%	2000 nM
Cn1c(=O)c2c(-c3ccccc3F)n3c(c2n(C)c1=O)C(c1cccc(Cl)c1)Nc1ccccc1-3 (stereo not drawn) [PPQ-214, 7,9-Dimethyl-11-(2-fluorophenyl)-6-(3-chlorophenyl)-5,6-dihydro-pyrimido[4′,5′-3,4]pyrrolo[1,2-a]quinoxaline-8,10-(7H,9H)-dione]	70%	–	70%	> 95%	2500 nM
Cc1cccc(-c2c3c(=O)n(C)c(=O)n(C)c3c3n2-c2ccccc2NC3c2ccccc2F)c1 (stereo not drawn) [PPQ-215, 7,9-Dimethyl-11-(3-methylphenyl)-6-(2-fluorophenyl)-5,6-dihydro-pyrimido[4′,5′-3,4]pyrrolo[1,2-a]quinoxaline-8,10-(7H,9H)-dione]	67%	80%	67%	80%	2500 nM
COc1cccc(C2Nc3ccccc3-n3c(-c4ccccc4C)c4c(=O)n(C)c(=O)n(C)c4c32)c1 (stereo not drawn) [PPQ-216, 7,9-Dimethyl-11-(2-methylphenyl)-6-(3-methoxyphenyl)-5,6-dihydro-pyrimido[4′,5′-3,4]pyrrolo[1,2-a]quinoxaline-8,10-(7H,9H)-dione]	62%	–	62%	> 95%	3000 nM
Cc1cccc(C2Nc3ccccc3-n3c(-c4ccccc4C)c4c(=O)n(C)c(=O)n(C)c4c32)c1 (stereo not drawn) [PPQ-217, 7,9-Dimethyl-11-(2-methylphenyl)-6-(3-methylphenyl)-5,6-dihydro-pyrimido[4′,5′-3,4]pyrrolo[1,2-a]quinoxaline-8,10-(7H,9H)-dione]	46%	–	46%	> 95%	3000 nM
Cc1ccccc1-c1c2c(=O)n(C)c(=O)n(C)c2c2n1-c1ccccc1NC2c1ccccc1 (stereo not drawn) [PPQ-218, 7,9-Dimethyl-11-(2-methylphenyl)-6-phenyl-5,6-dihydro-pyrimido[4′,5′-3,4]pyrrolo[1,2-a]quinoxaline-8,10-(7H,9H)-dione]	–	–	41%	94%	5000 nM
Cc1cccc(-c2c3c(=O)n(C)c(=O)n(C)c3c3n2-c2ccccc2NC3c2cccc(F)c2)c1 (stereo not drawn) [PPQ-219, 7,9-Dimethyl-11-(3-methylphenyl)-6-(3-fluorophenyl)-5,6-dihydro-pyrimido[4′,5′-3,4]pyrrolo[1,2-a]quinoxaline-8,10-(7H,9H)-dione]	53%	93%	53%	93%	8000 nM
Cc1ccc(-c2c3c(=O)n(C)c(=O)n(C)c3c3n2-c2ccccc2NC3c2ccc(C)cc2O)cc1 (stereo not drawn) [PPQ-220, 7,9-Dimethyl-11-(4-methylphenyl)-6-(2-hydroxy-4-methylphenyl)-5,6-dihydro-pyrimido[4′,5′-3,4]pyrrolo[1,2-a]quinoxaline-8,10-(7H,9H)-dione]	–	–	< 10%	> 95%	–
Cc1ccccc1-c1c2c(=O)n(C)c(=O)n(C)c2c2n1-c1ccccc1NC2c1cccc(F)c1F (stereo not drawn) [PPQ-221, 7,9-Dimethyl-11-(2-methylphenyl)-6-(2,3-difluorophenyl)-5,6-dihydro-pyrimido[4′,5′-3,4]pyrrolo[1,2-a]quinoxaline-8,10-(7H,9H)-dione]	–	–	50%	> 95%	–
Cc1ccccc1-c1c2c(=O)n(C)c(=O)n(C)c2c2n1-c1ccccc1NC2c1ccc(O)cc1 (stereo not drawn) [PPQ-222, 7,9-Dimethyl-11-(2-methylphenyl)-6-(4-hydroxyphenyl)-5,6-dihydro-pyrimido[4′,5′-3,4]pyrrolo[1,2-a]quinoxaline-8,10-(7H,9H)-dione]	–	–	32%	84%	–
Cc1cc2c(cc1C)-n1c(-c3ccccc3)c3c(=O)n(C)c(=O)n(C)c3c1C(c1cccc(O)c1)N2 (stereo not drawn) [PPQ-223, 2,3,7,9-Tetramethyl-11-phenyl-6-(3-hydroxyphenyl)-5,6-dihydro-pyrimido[4′,5′-3,4]pyrrolo[1,2-a]quinoxaline-8,10-(7H,9H)-dione]	–	–	36%	92%	–
Cc1cc2c(cc1C)-n1c(-c3ccccc3)c3c(=O)n(C)c(=O)n(C)c3c1C(c1ccc(O)c(O)c1)N2 (stereo not drawn) [PPQ-224, 2,3,7,9-Tetramethyl-11-phenyl-6-(3,4-dihydroxyphenyl)-5,6-dihydro-pyrimido[4′,5′-3,4]pyrrolo[1,2-a]quinoxaline-8,10-(7H,9H)-dione]	–	–	24%	82%	–
Cc1cccc(-c2c3c(=O)n(C)c(=O)n(C)c3c3n2-c2ccccc2NC3c2cccc([N+](=O)[O-])c2)c1 (stereo not drawn) [PPQ-225, 7,9-Dimethyl-11-(3-methylphenyl)-6-(3-nitrophenyl)-5,6-dihydro-pyrimido[4′,5′-3,4]pyrrolo[1,2-a]quinoxaline-8,10-(7H,9H)-dione]	–	–	61%	94%	–
Cc1cc2c(cc1C)-n1c(-c3ccccc3)c3c(=O)n(C)c(=O)n(C)c3c1C(c1ccccc1)N2 (stereo not drawn) [PPQ-226, 2,3,7,9-Tetramethyl-11-phenyl-6-phenyl-5,6-dihydro-pyrimido[4′,5′-3,4]pyrrolo[1,2-a]quinoxaline-8,10-(7H,9H)-dione]	–	–	61%	92%	–
COc1cc(C2Nc3ccccc3-n3c(-c4ccccc4C)c4c(=O)n(C)c(=O)n(C)c4c32)ccc1O (stereo not drawn) [PPQ-227, 7,9-Dimethyl-11-(2-methylphenyl)-6-(3-methoxy-4-hydroxyphenyl)-5,6-dihydro-pyrimido[4′,5′-3,4]pyrrolo[1,2-a]quinoxaline-8,10-(7H,9H)-dione]	–	–	10%	78%	–
Cc1cccc(-c2c3c(=O)n(C)c(=O)n(C)c3c3n2-c2ccccc2NC3c2cccc(O)c2)c1 (stereo not drawn) [PPQ-228, 7,9-Dimethyl-11-(3-methylphenyl)-6-(3-hydroxyphenyl)-5,6-dihydro-pyrimido[4′,5′-3,4]pyrrolo[1,2-a]quinoxaline-8,10-(7H,9H)-dione]	–	–	30%	83%	–
Cc1ccccc1-c1c2c(=O)n(C)c(=O)n(C)c2c2n1-c1ccccc1NC2c1cccc(F)c1 (stereo not drawn) [PPQ-229, 7,9-Dimethyl-11-(2-methylphenyl)-6-(3-fluorophenyl)-5,6-dihydro-pyrimido[4′,5′-3,4]pyrrolo[1,2-a]quinoxaline-8,10-(7H,9H)-dione]	–	–	57%	90%	–
Cn1c(=O)c2c(-c3ccccc3F)n3c(c2n(C)c1=O)C(c1cccc(F)c1)Nc1ccccc1-3 (stereo not drawn) [PPQ-230, 7,9-Dimethyl-11-(2-fluorophenyl)-6-(3-fluorophenyl)-5,6-dihydro-pyrimido[4′,5′-3,4]pyrrolo[1,2-a]quinoxaline-8,10-(7H,9H)-dione]	–	–	51%	87%	–
CCOc1ccccc1C1Nc2ccccc2-n2c(-c3cccc(C)c3)c3c(=O)n(C)c(=O)n(C)c3c21 (stereo not drawn) [PPQ-231, 7,9-Dimethyl-11-(3-methylphenyl)-6-(2-ethoxyphenyl)-5,6-dihydro-pyrimido[4′,5′-3,4]pyrrolo[1,2-a]quinoxaline-8,10-(7H,9H)-dione]	–	–	< 10%	87%	–
Cc1cccc(C2Nc3ccccc3-n3c(-c4ccccc4)c4c(=O)n(C)c(=O)n(C)c4c32)c1 (stereo not drawn) [PPQ-232, 7,9-Dimethyl-11-phenyl-6-(3-methylphenyl)-5,6-dihydro-pyrimido[4′,5′-3,4]pyrrolo[1,2-a]quinoxaline-8,10-(7H,9H)-dione]	–	–	67%	67%	–
Cn1c(=O)c2c(-c3ccccc3F)n3c(c2n(C)c1=O)C(c1ccc(F)cc1)Nc1ccccc1-3 (stereo not drawn) [PPQ-233, 7,9-Dimethyl-11-(2-fluorophenyl)-6-(4-fluorophenyl)-5,6-dihydro-pyrimido[4′,5′-3,4]pyrrolo[1,2-a]quinoxaline-8,10-(7H,9H)-dione]	–	–	28%	82%	–
Cc1ccccc1-c1c2c(=O)n(C)c(=O)n(C)c2c2n1-c1ccccc1NC2c1ccccc1F (stereo not drawn) [PPQ-234, 7,9-Dimethyl-11-(2-methylphenyl)-6-(2-fluorophenyl)-5,6-dihydro-pyrimido[4′,5′-3,4]pyrrolo[1,2-a]quinoxaline-8,10-(7H,9H)-dione]	–	–	53%	81%	–
